From patent publication US20040185109A1, “Method for incorporating cationic molecules into a substrate for increasing dispersibility of cationic molecules” (priority 2002, published 2004) come the findings set out here.

The nature of this data set: Determination of useful cationic compounds: dye mixed with organoclay, clean clay, quat or alone in water, centrifuged, examined visually. In kind it is physicochemical. The following applies: for Ionic character (cationic or anionic) concluded from the visual results: conclusion from Test Tubes 1-4. The text has this:
At the outset of the method of the present invention, it must first be determined if a particular compound or molecule will be able to undergo the method of enhancing its dispersibility and thereby its cationic properties as disclosed herein. Thus, a determination must be made (for example, if the ionic character of a certain compound is unknown) whether or not the ion or molecule comprises an cationic portion that will ion exchange onto the surface of a substrate such as a clay or an organoclay. Thus, the molecule or ion can be tested in order to determine whether it has a cationic character (and thus can undergo the present method) or an anionic character or a neutral character. In testing certain molecules or ions, the procedure described below was employed.
Using Jarocol Straw Yellow dye as a representative example, four 1 mg samples of the dye were weighed and placed in 4 test tubes.
Subsequently, 10 mL of water were added to each of the four test tubes, and all of the samples were mixed well for 30 seconds. The samples from each of the test tubes were then centrifuged for 15 minutes in a laboratory scale centrifuge.
Next, the resulting centrifuged samples were examined and analyzed (by being compared to the control sample) to determine whether the Jarocol Straw Yellow dye reacted with the organoclay, the clean clay, or the quat, so that it could then be decided if Jarocol Straw Yellow dye has the requisite cationic character to ion exchange onto the surface of a clay and thereby have increased dispersibility in various application systems.
The analysis herein was performed visually, since the six samples tested were dyes. However, non-dye samples may be analyzed through infrared spectroscopy, differential scanning calorimetry (DSC), gas chromatography, UV spectroscopy, thermogravimetric analysis, or the like. For example, for a non-dye sample, the clay may be separated from the water, both parts may be taken to dryness, and the IR spectrum of each may be recorded.
Just as Jarocol Straw Yellow dye was tested using the four test tubes, the other five dye samples were similarly tested.

As for `O=C([O-])c1ccccc1-c1c2cc(Br)c(=O)c(Br)c-2oc2c(Br)c([O-])c(Br)cc12.[Na+].[Na+]` [D&C Red No. 22 dye], the “Ionic character (cationic or anionic) concluded from the visual results” value (“Ionic character” below) is listed as “exhibit anionic character to some extent”.

As for `CCN(Cc1cccc(S(=O)(=O)[O-])c1)c1ccc(C(=C2C=CC(=[N+](CC)Cc3cccc(S(=O)(=O)[O-])c3)C=C2)c2ccccc2S(=O)(=O)[O-])cc1.[Na+].[Na+]` [FD&C Blue No. 1 dye], the “Ionic character” value is given as “exhibit anionic character to some extent”.

For `O=C([O-])C1=NN(c2ccc(S(=O)(=O)[O-])cc2)C(=O)C1N=Nc1ccc(S(=O)(=O)[O-])cc1.[Na+].[Na+].[Na+]` (stereo not shown) [FD&C Yellow No. 5 dye], the “Ionic character” value was “exhibit anionic character to some extent”.

On to `Cc1ccc(N=Nc2c([O-])c(C(=O)O)cc3ccccc23)c(S(=O)(=O)[O-])c1.[Na+].[Na+]` [Lithol Rubine B], for which the “Ionic character” value was “anionic in nature”. Moreover, the “Test Tube 3 (10 mg Quat) visual result” value (1 mg dye + 10 mg quat, 10 mL water, mixed 30 seconds, centrifuged 15 minutes) was “formed a highly insoluble reaction product with the quat”. Further, the “Test Tube 4 (Control, sample only) visual result” value (1 mg dye only, 10 mL water, mixed 30 seconds, centrifuged 15 minutes) was “Water was red”.

Regarding `CN(C)c1ccc2nc3ccc(=[N+](C)C)cc-3sc2c1` [Methylene Blue, laboratory reagent dye, methylene blue], the “Ionic character” value was “have the requisite cationic character”.
